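Five concentrations, 48 hours, 96-well plates. GI50 is the concentration that inhibits growth by half.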 Calls of active or inactive are those of the source. Rule as the data show it: active = GI50 up to about 1.1 µM and inactive = higher.
Experiments:
Test in all cases: NCI tumour cell line growth inhibition, 48 h
[1] = tested on: UO-31
[2] = tested on: NCI-H23
[3] = tested on: SF-295
[4] = tested on: NCI-H226
[5] = tested on: OVCAR-5
[6] = tested on: HOP-92
[7] = tested on: RXF 393
[8] = tested on: OVCAR-3
[9] = tested on: NCI/ADR-RES
[10] = tested on: SNB-75
[11] = tested on: NCI-H460
[12] = tested on: U-251
[13] = tested on: HL-60
[14] = tested on: A498
[15] = tested on: K562
[16] = tested on: SR
[17] = tested on: A549
[18] = tested on: COLO 205
[19] = tested on: TK-10

Structure (SMILES)	GI50 [1]	GI50 [2]	GI50 [3]	GI50 [4]	GI50 [5]	GI50 [6]	GI50 [7]	GI50 [8]	GI50 [9]	GI50 [10]	GI50 [11]	GI50 [12]	GI50 [13]	GI50 [14]	GI50 [15]	GI50 [16]	GI50 [17]	GI50 [18]	GI50 [19]
COc1ccc2[nH]c3c(C)c4cc[n+](C)cc4c(C)c3c2c1	38.5 µM (inactive)	0.521 µM (active)	0.173 µM (active)	0.232 µM (active)	6.67 µM (inactive)	2.27 µM (inactive)	0.798 µM (active)	2.82 µM (inactive)	19.3 µM (inactive)	0.121 µM (active)	1.26 µM (inactive)	0.105 µM (active)	14.9 µM (inactive)						
COc1ccc(/C=C/c2cc(OC)c(OCc3ccccc3)c(OC)c2)cc1	52.1 µM (inactive)	64 µM (inactive)		> 100 µM (inactive)	8.99 µM (inactive)	89.7 µM (inactive)		> 100 µM (inactive)		> 100 µM (inactive)	> 100 µM (inactive)	> 100 µM (inactive)		> 100 µM (inactive)	> 100 µM (inactive)	26.4 µM (inactive)	> 100 µM (inactive)	> 100 µM (inactive)	
Nc1ncnc2c1ncn2C1CCC(CO)O1 (configuration not stated)	> 100 µM (inactive)	> 66.7 µM (inactive)	> 79.4 µM (inactive)	> 67.9 µM (inactive)	> 100 µM (inactive)	> 79.8 µM (inactive)	> 100 µM (inactive)	> 100 µM (inactive)	> 77.4 µM (inactive)	> 100 µM (inactive)	> 100 µM (inactive)	> 100 µM (inactive)	> 100 µM (inactive)	> 85.1 µM (inactive)	> 100 µM (inactive)		> 100 µM (inactive)	> 100 µM (inactive)	
Nc1nc(=O)[nH]c2c1cnn2C1CCCCO1 (configuration not stated)	> 100 µM (inactive)	> 100 µM (inactive)	> 100 µM (inactive)	39.3 µM (inactive)	64 µM (inactive)	> 100 µM (inactive)	56 µM (inactive)			> 100 µM (inactive)	> 100 µM (inactive)	> 100 µM (inactive)	38.4 µM (inactive)	> 100 µM (inactive)	> 100 µM (inactive)	56 µM (inactive)	> 100 µM (inactive)	> 100 µM (inactive)	> 100 µM (inactive)
Nc1nc(SCc2ccccc2Cl)c2[nH]cnc2n1	77.6 µM (inactive)	66.1 µM (inactive)	58.6 µM (inactive)		96.4 µM (inactive)		23.1 µM (inactive)	97.7 µM (inactive)			48.9 µM (inactive)	65.3 µM (inactive)	36.4 µM (inactive)	15 µM (inactive)	50.2 µM (inactive)	64.9 µM (inactive)	73.1 µM (inactive)	91.6 µM (inactive)	18.8 µM (inactive)
Cc1cccc(C(=O)c2cccc3ccccc23)c1C(=O)O	> 100 µM (inactive)	> 100 µM (inactive)	> 100 µM (inactive)	> 100 µM (inactive)	> 100 µM (inactive)	> 100 µM (inactive)	> 100 µM (inactive)	> 100 µM (inactive)		> 100 µM (inactive)	> 100 µM (inactive)	> 100 µM (inactive)		> 100 µM (inactive)	> 100 µM (inactive)		> 100 µM (inactive)	23.3 µM (inactive)	> 100 µM (inactive)
O=c1c2cc3c(=O)n(CCc4ccccc4CO)c(=O)c3cc2c(=O)n1CCc1ccccc1CO	> 100 µM (inactive)	> 100 µM (inactive)	46.6 µM (inactive)	> 100 µM (inactive)			> 100 µM (inactive)	> 100 µM (inactive)		> 100 µM (inactive)	> 100 µM (inactive)	> 100 µM (inactive)	> 100 µM (inactive)	> 100 µM (inactive)	> 100 µM (inactive)		> 100 µM (inactive)		> 100 µM (inactive)
C=C(N=[N+]=[N-])c1cn(C2CC(O)C(CO)O2)c(=O)[nH]c1=O (configuration not stated)	> 100 µM (inactive)	> 100 µM (inactive)	> 100 µM (inactive)	> 100 µM (inactive)	> 100 µM (inactive)	> 100 µM (inactive)	> 100 µM (inactive)	> 100 µM (inactive)		> 100 µM (inactive)	> 100 µM (inactive)	> 100 µM (inactive)	> 100 µM (inactive)		> 100 µM (inactive)	> 100 µM (inactive)	> 100 µM (inactive)	> 100 µM (inactive)	> 100 µM (inactive)
C=CCc1cc(OC)c2c(c1)C(OC(C)=O)CC(c1ccc(OC)c(OC)c1)O2 (configuration not stated)	> 100 µM (inactive)	46.7 µM (inactive)	67.3 µM (inactive)	> 100 µM (inactive)	> 100 µM (inactive)	23.4 µM (inactive)		> 100 µM (inactive)		17.1 µM (inactive)	> 100 µM (inactive)	60.5 µM (inactive)	> 100 µM (inactive)		> 100 µM (inactive)	> 100 µM (inactive)	> 100 µM (inactive)	> 100 µM (inactive)	63.1 µM (inactive)
CCOC(=O)C(=O)NCCCN1CCOCC1	> 100 µM (inactive)	> 100 µM (inactive)	> 100 µM (inactive)	> 100 µM (inactive)	> 100 µM (inactive)	> 100 µM (inactive)	> 100 µM (inactive)	> 100 µM (inactive)		> 100 µM (inactive)	> 100 µM (inactive)	> 100 µM (inactive)	> 100 µM (inactive)	> 100 µM (inactive)	> 100 µM (inactive)		> 100 µM (inactive)	> 100 µM (inactive)	> 100 µM (inactive)
O=[N+]([O-])c1ccc(COc2cccc3cccnc23)cc1	10.1 µM (inactive)	20 µM (inactive)	26.6 µM (inactive)	18.7 µM (inactive)	38.5 µM (inactive)	31 µM (inactive)	43.5 µM (inactive)	5.94 µM (inactive)		26.9 µM (inactive)	1.23 µM (inactive)	10 µM (inactive)	5.69 µM (inactive)	34.8 µM (inactive)	11.3 µM (inactive)	3.47 µM (inactive)	31 µM (inactive)	17.2 µM (inactive)	15.8 µM (inactive)
CCC(C)CN1C(=O)NC(Cc2ccccc2)C1=O (configuration not stated)	> 100 µM (inactive)	> 100 µM (inactive)	> 100 µM (inactive)	> 100 µM (inactive)	> 100 µM (inactive)	19.4 µM (inactive)	> 100 µM (inactive)			> 100 µM (inactive)	> 100 µM (inactive)	> 100 µM (inactive)	> 10 µM (inactive)			> 100 µM (inactive)	> 100 µM (inactive)		> 100 µM (inactive)
O=C(Nc1ccc(Cl)cc1Cl)/C(Cl)=C1/Sc2ccccc2NC1=O	30 µM (inactive)	19.6 µM (inactive)		25.2 µM (inactive)	52.6 µM (inactive)	16.8 µM (inactive)	27.9 µM (inactive)			18 µM (inactive)	38.6 µM (inactive)	32.3 µM (inactive)	21.9 µM (inactive)	66.4 µM (inactive)	29.6 µM (inactive)		39.3 µM (inactive)	26.6 µM (inactive)	73.5 µM (inactive)
CC(C)=CC(=O)Cc1nc2ccccc2[nH]c1=O	68.7 µM (inactive)	> 100 µM (inactive)	64 µM (inactive)	> 100 µM (inactive)	> 100 µM (inactive)	22.4 µM (inactive)	18.4 µM (inactive)	> 100 µM (inactive)		40.3 µM (inactive)	> 100 µM (inactive)	> 100 µM (inactive)	49.5 µM (inactive)	> 100 µM (inactive)	> 100 µM (inactive)	> 100 µM (inactive)	> 100 µM (inactive)	> 100 µM (inactive)	> 100 µM (inactive)
COC(=O)c1ccccc1NC(=O)C(=O)CC(=O)CC(c1ccccc1)c1c(O)c2ccccc2oc1=O (configuration not stated)	> 100 µM (inactive)	> 100 µM (inactive)	> 100 µM (inactive)		> 100 µM (inactive)		> 100 µM (inactive)	> 100 µM (inactive)			> 100 µM (inactive)		> 100 µM (inactive)	47.4 µM (inactive)	> 10 µM (inactive)	> 100 µM (inactive)	> 100 µM (inactive)	> 100 µM (inactive)	> 100 µM (inactive)
C#CCC1(C(=O)OCC)C(=O)c2ccccc2N(C)C1=O (configuration not stated)	30.8 µM (inactive)	14.7 µM (inactive)	> 100 µM (inactive)	62.5 µM (inactive)		36.6 µM (inactive)		> 100 µM (inactive)		16.6 µM (inactive)	> 100 µM (inactive)	> 100 µM (inactive)	60.1 µM (inactive)	67.5 µM (inactive)	91.8 µM (inactive)			> 100 µM (inactive)	> 100 µM (inactive)
C/C(CCn1[nH]c(=O)ccc1=O)=N\NC(=O)C(=O)NN	> 100 µM (inactive)	> 100 µM (inactive)	> 100 µM (inactive)	> 100 µM (inactive)	> 100 µM (inactive)		> 100 µM (inactive)	> 100 µM (inactive)			> 100 µM (inactive)		> 100 µM (inactive)	43.8 µM (inactive)	> 100 µM (inactive)		> 100 µM (inactive)	> 100 µM (inactive)	> 100 µM (inactive)
O=C(O)[C@@H](NS(=O)(=O)c1ccc(F)cc1)c1ccccc1	> 100 µM (inactive)	> 100 µM (inactive)	> 100 µM (inactive)	> 100 µM (inactive)	> 100 µM (inactive)		> 100 µM (inactive)	> 100 µM (inactive)		> 100 µM (inactive)	> 100 µM (inactive)	> 100 µM (inactive)			> 100 µM (inactive)		> 100 µM (inactive)	> 100 µM (inactive)	> 100 µM (inactive)

— ChEMBL document CHEMBL1201862, “PubChem BioAssay data set” (2004)
